Among the data in PMC12040169 (PLOS Biology, 2025) are viability values, retold here.

Broadly, the viability is a read-out of living cells in per cent, often relative to untreated cells.

The nature of this data set: in vitro. Conditions: human, hela cells, % viability.

Take `CC1=C(C(=O)Nc2ccccc2)C(c2cccs2)C(C#N)=C(SCC(=O)c2ccc(Br)cc2)N1` (stereo not shown) [CBK261384]: the viability at 28.5 h, 10 µM was 104%. Next, `O=C(Nc1cnc(-c2cccc(C(F)(F)F)c2)c(-c2cccnc2)n1)c1cc(-c2ccco2)n[nH]1` [CBK036878]: 104%; `COc1ccccc1CC(=O)N1CCN(Cc2ccco2)C[C@@H]1C` [CBK285481]: 105%; `COc1cc(OC)nc(CN2C(=O)CC3(C2=O)C(=O)N(CC(=O)c2ccccc2)c2ccc(C)cc23)n1` (stereo not shown) [CBK076059]: 96.7%.

As for `CC(=O)Nc1c(-c2ccc(C)cc2)c(=O)c2ccccc2n1C` [CBK287775], the viability at 28.5 h, 10 µM was 88%.

As to `O=S(=O)(NC1CCCCC1Oc1ccccc1)c1ccc(Cl)cc1` (stereo not shown) [CBK264697], the viability at 28.5 h, 10 µM stood at 114%. As for `CCCC/C=C/c1ccc(Nc2ccc(N3CCOCC3)cc2)nc1` [CBK036886], the figure is 88.7%. As for `O=C(Nc1ccc(NC(=O)c2cc3ccccc3o2)cc1)c1ccc(-c2cccc([N+](=O)[O-])c2)o1` [CBK268579], the viability at 28.5 h, 10 µM is 86.8%.

As for `CC1(C)CC(=O)c2cc(C(N)=O)c(=O)n(-c3ccc(Cl)cc3)c2C1` [CBK293936], the viability at 28.5 h, 10 µM stood at 88.8%. As for `COc1cc(Nc2nc(-c3ccccc3F)cn3ccnc23)cc(OC)c1OC` [CBK037301], the figure is 98.9%; as for `O=C(O)/C=N/NC(=O)c1ccco1` [CBK260923], 89.5%; as for `COc1ccc(C(N2CCOCC2)N2CCOCC2)cc1` [CBK261002], 102%. As for `O=C(c1ccc(-c2ccoc2)nc1)N1CCCC1` [CBK156284], the figure is 84.6%. Next, `O=C1CCCN1CCCNC(=O)C1(c2ccccc2)COc2ccccc21` (stereo not shown) [CBK017653]: 92.3%; `c1ccc(-c2nccnc2NCc2ccco2)cc1` [CBK088642]: 94.3%; `Cc1nn(C)cc1-c1cncn1C(C)(C)CN1CCC(C)CC1` [CBK281740]: 108%. On to `COc1ccc(OCC(=O)Nc2cccc(-c3nnc4c5ccccc5c(C)nn34)c2)cc1` [CBK266743], for which the viability at 28.5 h, 10 µM amounted to 105%. Next, `COc1cc(C(C)=O)ccc1OCCCCN1CCOCC1` [CBK269713C]: 98.2%; `Clc1ccc(CN2CCC(Oc3cncc(OCCN4CCOCC4)n3)C2)cc1Cl` (stereo not shown) [CBK084477]: 91.4%.

Regarding `O=C(CSCc1ccc(Cl)c(Cl)c1)Nc1ncccn1` [CBK269998], the viability at 28.5 h, 10 µM is 89.7%. Regarding `COc1ccc(CN(C)C(=O)CCc2c(C)nc3c(cnn3C(C)C)c2C)cc1` [CBK297087], the viability at 28.5 h, 10 µM turned out to be 80.6%. Next, `CCC1C(=O)NCCN1C(=O)c1cc2cc(C)ccc2n1C` (stereo not shown) [CBK281729]: 110%. Consider `Nc1cc2ccccc2c(-c2ccc3c(c2)OCCCO3)n1` [CBK085722], for which the viability at 28.5 h, 10 µM is 102%. On to `Cc1cc(C)n2nc(CCCOC(=O)c3ccn(C(C)C)n3)nc2n1` [CBK305272], for which the viability at 28.5 h, 10 µM worked out at 112%. Next, `Cc1ccc(S(N)(=O)=O)cc1NC(=O)c1ccc(S(=O)(=O)N(C)C)cc1` [CBK266050]: 103%; `O=C(COc1ccc([N+](=O)[O-])cc1)Nc1ccc(S(=O)(=O)N2CCCCC2)cc1` [CBK265003]: 119%; `Cc1cc2ccccc2n2c(SCC(=O)Nc3nsc(-c4ccccc4)n3)nnc12` [CBK265673]: 116%. As for `CCN(CC)C(=O)CN1CCN(c2nccnc2OCc2ccc(Cl)c(Cl)c2)CC1` [CBK083081T], the figure is 101%; as for `O=C(O)c1c(-c2ccccc2)oc2ccc(NS(=O)(=O)c3ccc(F)cc3)cc12` [CBK299817], 89.9%; as for `COc1cc([N+](=O)[O-])ccc1NC(=O)NCc1ccco1` [CBK266855], 101%. Next, `CC(C)C(=O)N1CCC(c2nc3ccc(F)cc3cc2N)CC1` [CBK284656]: 81.5%; `COc1ccc(/C=N/NC(=O)CCn2c3ccccc3c3ccccc32)cc1O` [CBK262343]: 46%.

With `O=C(c1ccccc1)N1C[C@@H]2CCCCN(Cc3cccnc3)[C@@H]2C1` [CBK285512], the viability at 28.5 h, 10 µM worked out at 98.7%.

Consider `COc1ccc(CCC(=O)NC[C@H]2CC[C@H](c3cc(C(N)=O)c4ccccc4n3)CC2)cc1` [CBK285920], for which the viability at 28.5 h, 10 µM was 91.7%. Next, `CC(CCc1ccccc1)NC(=O)CN1CCOCC1` (stereo not shown) [CBK268994]: 93%; `O=C(CCc1cn2ccccc2n1)NCc1cc2n(n1)CCCNC2` [CBK307157]: 88.8%; `Cc1cccc(Cn2c(=O)c3cnc(-c4ccncc4)nc3n(C)c2=O)c1` [CBK288593]: 82.8%. As for `COc1ccc(CN2CCN(C(=O)NS(=O)(=O)c3ccc(C)cc3)CC2)cc1F` [CBK297156], the figure is 98.5%. As for `NC(=O)CC[n+]1ccc2ccccc2c1` [CBK022857C], the figure is 110%. Consider `CCOc1ccc(CN(C)C(=O)Nc2cc(C)on2)cc1` [CBK306216], for which the viability at 28.5 h, 10 µM came to 101%. As to `CCOc1cccc(CNc2ccc(N3CCOCC3)c(C(=O)O)c2)c1` [CBK269973], the viability at 28.5 h, 10 µM worked out at 92.9%.

Regarding `Cc1nnc(SCC(=O)N2CCCN(c3ccc(F)cc3)CC2)s1` [CBK306908], the viability at 28.5 h, 10 µM stood at 88.7%. For the molecule `O=C(O)c1ccc(N2C(=O)CC(S/C(=N\c3ccccc3)Nc3ccccc3)C2=O)cc1` (stereo not shown) [CBK262191], the viability at 28.5 h, 10 µM was 107%.

`Cc1cc2nccc(C3CCCN(C(=O)c4ccccc4F)C3)n2n1` (stereo not shown) [CBK284184]: the viability at 28.5 h, 10 µM amounted to 97.2%. Next, `COc1ccc(C)cc1-n1ccc(C(=O)NC2CCSCC2)n1` [CBK305502]: 94.6%. With `Cc1nnc2ccc(N3CCN(Cc4cscn4)CC3)nn12` [CBK304910], the viability at 28.5 h, 10 µM stood at 101%. Next, `Cc1nc2sc3c(c2c2nc(-c4ccncc4)nn12)CCCC3` [CBK288541]: 94.5%. Next, `CC1CCc2c(sc(NC(=O)c3ccncc3)c2C(N)=O)C1` (stereo not shown) [CBK288530]: 87.8%; `CCCCC[C@H](O)CCC1[C@H](O)C[C@@H]2Cc3c(cccc3OCC(=O)O)C[C@H]12` (stereo partly shown) [CBK011575]: 98.3%; `Cc1ccc(O)c(CN[C@@H]2CCC(=O)N[C@H]2c2cc(F)cc(F)c2)c1` [CBK283132]: 94%.

On to `Cc1ccc(Oc2ccc3c(c2)C(=O)N(CC(=O)O)C3=O)cc1` [CBK287126], for which the viability at 28.5 h, 10 µM was determined as 91.4%. As for `COc1ccc(CN[C@@H]2CCC[C@H]2Cc2cc(C)no2)cc1` [CBK285401], the figure is 94.4%. Regarding `O=C(O)c1ccc(CNC2CC(=O)N(c3ccc(F)cc3)C2=O)cc1` (stereo not shown) [CBK286727], the viability at 28.5 h, 10 µM is 95.3%. As for `COc1cc(C=O)ccc1OC(=O)c1nsc(Cl)c1Cl` [CBK266619], the figure is 89.1%; as for `Cc1cc(Oc2ccccc2)nc(Oc2ccc(OCC(N)=O)nn2)n1` [CBK266687], 98.5%. Next, `O=C1CC(c2ccc(F)cc2)Cc2[nH]c(=O)c(C(=O)O)cc21` (stereo not shown) [CBK287200]: 88.8%.

On to `Cc1nn(C)cc1-c1cncn1CCCC(C)(C)CO` [CBK281492], for which the viability at 28.5 h, 10 µM was found to be 86.1%. As for `O=C(NCc1ccccc1)C(=O)NNC(=O)C12CC3CC(CC(C3)C1)C2` [CBK262951], the figure is 94.9%; as for `Nc1ccc(CCNC(=O)c2cnc(-c3cccc(C(F)(F)F)c3)c(-c3ccncc3)c2)cc1` [CBK037580], 90.8%. As for `CCNS(=O)(=O)c1ccc(NS(=O)(=O)Cc2ccccc2)cc1` [CBK268257], the figure is 100%. Next, `Cc1nc(NCc2ccc(C(F)(F)F)cc2)nc(N2CCN(C)CC2)n1` [CBK023866]: 112%; `CC(=O)c1ccc(-c2ccc(C(=O)NCC3COc4ccccc4O3)c(NCc3cccnc3)n2)s1` (stereo not shown) [CBK076608]: 97.9%. With `CC1(C)CC(O[Si](C)(C)OC2CC(C)(C)NC(C)(C)C2)CC(C)(C)N1` [CBK261942], the viability at 28.5 h, 10 µM came to 99.3%.

In the case of `O=C(CSc1nnc(-c2ccccc2Br)o1)c1ccc(F)cc1` [CBK068688], the viability at 28.5 h, 10 µM is 92.2%. Next, `CCn1c(CN2CCCC2c2nc(N(C)C)ncc2-c2ccc(F)cc2)nc2ccccc21` (stereo not shown) [CBK285974]: 94.9%; `CN(C)S(=O)(=O)c1ccc(Cl)c(C(=O)Nc2cccc(C(=O)O)c2)c1` [CBK265727]: 90.9%; `O=C(Cc1c[nH]c2ccccc12)NC1CCCC1` [CBK200238]: 76.1%.

Consider `CCCn1cnnc1CN(C)C(=O)NCCc1nc2ccccc2s1` [CBK307663], for which the viability at 28.5 h, 10 µM stood at 98.2%. On to `COc1cc(C(=O)c2ccc(Cl)cc2)cc(Br)c1OCCN1CCOCC1` [CBK010131C], for which the viability at 28.5 h, 10 µM was found to be 96.5%. As for `COc1ccc(-c2nccnc2NCCCN(C)C)cc1` [CBK037671], the figure is 93.9%; as for `CC(C)N(CCOc1nccnc1-c1cnn(C)c1)C(C)C` [CBK107084], 103%. Next, `O=C(O)C1CC(=O)N(CCc2ccccc2)/C(=N/CCc2ccccc2)S1` (stereo not shown) [CBK265558]: 89.2%; `Cc1ccccc1Nc1ccccc1C(=O)O` [CBK012249]: 113%. Next, `CCCn1cnc2cc(NC(=O)Cn3cccc(C(=O)Nc4ccc(F)cc4)c3=O)ccc21` [CBK286060]: 84.7%; `COc1ccc(N2CCN(CC(=O)N3c4ccccc4Sc4ccccc43)CC2)cc1` [CBK269398]: 89.1%. For `O=C(OCc1nnsc1Cl)c1ccc(C(=O)c2ccccc2)cc1` [CBK297897], the viability at 28.5 h, 10 µM stood at 109%. Next, `CCc1nc2n(n1)CC(NC1CCCc3ccccc31)CC2` (stereo not shown) [CBK304837]: 95.6%; `Cc1nccn1CCN(C)C(=O)c1ccc2c(c1)ncn2C` [CBK281993]: 98.8%; `N#CCCn1cc(C(=O)N2CCOCC2)c(-c2ccc(F)cc2)n1` [CBK306189]: 95.5%.
